Test results taken from paper PMC6877910, “Astrocyte-Targeted Transporter-Utilizing Derivatives of Ferulic Acid Can Have Multifunctional Effects Ameliorating Inflammation and Oxidative Stress in the Brain” (Oxidative Medicine and Cellular Longevity, 2019).

Experiments:
[1] = system: peroxidase activity of cyclooxygenases (COX); experiment: Peroxidase activity of cyclooxygenases in cell lysates (fluorometric kit); type: biochemical; conditions: 100 μM; 30 min; assay does not differentiate COX from LOX
Experimental: A coupled oxidation-reduction fluorometric assay was used to assess the inhibitory effect of compounds (100 μM) together with positive controls on the peroxidase activity of cyclooxygenases (COX) (ab204699 Cyclooxygenase Activity Assay Kit, Abcam, Cambridge, UK). The method has been done and validated according to the manufacturer's protocol. Briefly, studied compounds (100 μM) and the reaction mixture were incubated with the cell lysates at room temperature and the reaction was initiated by adding arachidonic acid/NaOH solution. The fluorescence was read in a kinetic mode after every 15 seconds for 30 minutes by the EnVision plate reader (EnVision, PerkinElmer, Inc., Waltham, MA, USA) at λex 535 nm and λem 587 nm.

mTOR = experiment: Total amount of mTOR (ELISA) in cells; type: cell-based, mouse; conditions: 48 h
Experimental: Enzyme-Linked Immunosorbent Assay (ELISA) kits were used (mTOR SimpleStep ELISA Kit and NFκB p65 Total SimpeStep ELISA Kit, Abcam, Cambridge, UK) to quantify mammalian (or mechanistic) target of rapamycin (mTOR) and transcription factor NF-κB amounts, respectively. […] The control wells were treated with the solvent only (0.5% DMSO). Cells were solubilized using the provided extraction buffer with the kit, incubated on ice for 20 minutes and centrifuged at 18 000 × g for 20 min at 4°C. The supernatants were stored at -80°C till the day of the analysis. Standards and samples were then analyzed following the manufacturer's protocol (ELISA sandwich method) and by reading the absorbance with the EnVision plate reader (EnVision, PerkinElmer, Inc., Waltham, MA, USA) at 450 nm. The results were analyzed as pmol of formed mTOR or NF-κB per mL.

purified human BACE1 = biological target: T1, purified human BACE1 (Homo sapiens, UniProt P56817); experiment: BACE1 FRET inhibition assay (SensoLyte 520); type: biochemical; conditions: 0.25 μM; 30 min
T1 construct: purchased AnaSpec, Inc., Fremont, CA, USA SensoLyte 520 BACE1 Assay kit (catalogue number not given)
T1 sequence (P56817 46-501): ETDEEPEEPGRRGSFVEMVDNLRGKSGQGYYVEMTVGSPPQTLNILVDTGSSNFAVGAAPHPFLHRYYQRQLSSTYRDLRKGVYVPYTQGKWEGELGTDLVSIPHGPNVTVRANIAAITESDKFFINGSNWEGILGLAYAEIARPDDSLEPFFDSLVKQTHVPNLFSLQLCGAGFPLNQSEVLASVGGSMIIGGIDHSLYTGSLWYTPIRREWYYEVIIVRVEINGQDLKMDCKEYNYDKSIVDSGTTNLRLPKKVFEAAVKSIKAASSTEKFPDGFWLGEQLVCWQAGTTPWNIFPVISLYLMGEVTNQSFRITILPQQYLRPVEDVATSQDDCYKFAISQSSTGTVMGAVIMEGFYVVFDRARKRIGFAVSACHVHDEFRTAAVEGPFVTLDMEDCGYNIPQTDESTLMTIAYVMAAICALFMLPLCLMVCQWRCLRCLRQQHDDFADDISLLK
From the text: A fluorometric assay was used to screen the inhibitory effect of the studied compounds on purified human BACE1 using a fluorescence resonance energy transfer (FRET) peptide technique (SensoLyte© 520 BACE1 Assay kit, AnaSpec, Inc., Fremont, CA, USA) according to the manufacturer's protocol. […] The sequence of the FRET peptide has been derived from the β-secretase cleavage site of β-amyloid precursor protein (APP) with Swedish mutation, which enhances β-secretase to process APP resulting in an early onset of AD. Thus, active β-secretase cleaved FRET substrate into two separate fragments resulting in the release of HiLyte™ Fluor 488 fluorescence that was measured by the EnVision plate reader (EnVision, PerkinElmer, Inc., Waltham, MA, USA) at λex 490 nm and λem 520 nm. […] The results were reported as percentages (%), with control sample representing 100% β-secretase activity.

## O=C(O)Cc1ccccc1Nc1c(Cl)cccc1Cl [DCF, diclofenac]
[1]
  Inhibition of peroxidase activity of COX enzymes: 18%

## NCC1(CC(=O)O)CCCCC1 [gabapentin]
mTOR; 100 μM
  Reduction of total amount of mTOR: 46-49%

## CN(C)C(=N)N=C(N)N [metformin]
mTOR; 100 μM
  Reduction of total amount of mTOR: did not affect

## CO[C@H]1C[C@@H]2CC[C@@H](C)[C@@](O)(O2)C(=O)C(=O)N2CCCC[C@H]2C(=O)O[C@H]([C@H](C)C[C@@H]2CC[C@@H](O)[C@H](OC)C2)CC(=O)[C@H](C)/C=C(\C)[C@@H](O)[C@@H](OC)C(=O)[C@H](C)C[C@H](C)/C=C/C=C/C=C/1C [rapamycin]
mTOR; 1 μM
  Reduction of total amount of mTOR: 46-49%

## KTEEISEVN-Sta-VAEF-NH2 [reference compound]
Purified human BACE1
  BACE1 inhibition: ca. 85%
